Experimental data taken from patent US6444617B1, “Fused-heterocycle dicarboxylic acid diamide derivatives or salts thereof, herbicide and usage thereof” (Nihon Nohyaku Co., Ltd., priority 1998, dated 2002).

Tests used:
Format in all cases: in vivo
[1] = tested on: barnyard grass (Echinochloa crus-galli Beauv.); assay: Test Example 1: herbicidal effect on paddy field weeds before emergence; conditions: Dosage 5 kg/ha
Method in brief: (§1)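 Grading reflects percent control relative to untreated plots, evaluated three weeks post-application. Treatment was a soil application of compound solution, predetermined dose, made to paddy-state pots before weed seeds germinated.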

[2] = tested on: bulrush (Scirpus juncoides Roxb.); assay: as above; conditions: Dosage 5 kg/ha
Method in brief: as §1

[3] = tested on: barnyard grass (Echinochloa crus-galli Beauv.); assay: Test Example 2: herbicidal effect on paddy field weeds after emergence; conditions: Dosage 5 kg/ha; one-leaved stage; 21 days after treatment
Method in brief: (§2)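 Weeds were sown in 1/10000 are pots of soil flooded to paddy conditions and grown to the one-leaf stage, then the soil was treated with a solution of compound at a predetermined dosage.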

[4] = tested on: bulrush (Scirpus juncoides Roxb.); assay: as above; conditions: Dosage 5 kg/ha; one-leaved stage; 21 days after treatment
Method in brief: as §2

[5] = tested on: monochoria (Monochoria vaginalis Presl); assay: as above; conditions: Dosage 5 kg/ha; one-leaved stage; 21 days after treatment
Method in brief: as §2

[6] = tested on: barnyard grass (Echinochloa crus-galli Beauv.), Ec; assay: Test Example 3: herbicidal effect on upland weeds before emergence; conditions: dosage 5 kg/ha
Method in brief: (§3)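 Read-out is the weed-killing rate, scored fourteen days after a single spray application made before the weeds emerged. The spray was a liquid agent carrying the active compound at a prescribed dose.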

[7] = tested on: bird's eye speedwell (Veronica persica Poir.), Vp; assay: as above; conditions: dosage 5 kg/ha
Method in brief: as §3

[8] = tested on: cleavers (Galium aparine L.), Ga; assay: as above; conditions: dosage 5 kg/ha
Method in brief: as §3

[9] = tested on: cocklebur (Xanthium strumarium L.), Xs; assay: as above; conditions: dosage 5 kg/ha
Method in brief: as §3

[10] = tested on: forxtail grass (Alopecurus aequalis var. amurensis Ohwi), Am; assay: as above; conditions: foxtail grass, dosage 5 kg/ha
Method in brief: as §3

[11] = tested on: velvetleaf (Abutilon theophtasti L.), At; assay: as above; conditions: dosage 5 kg/ha
Method in brief: as §3

soybean plant (So) = assay: Test Example 3: phytotoxicity to upland crop plants, treatment before emergence; conditions: dosage 5 kg/ha
Method in brief: (§4)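 Compound formulated as a liquid agent at a prescribed concentration is sprayed before crop emergence. After fourteen days, damage to soybean and wheat is examined and rated by a judgment criterion.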

wheat (Wh) = assay: as above; conditions: dosage 5 kg/ha
Method in brief: as §4

[12] = tested on: barnyard grass (Echinochloa crus-galli Beauv.), Ec; assay: Test Example 4: herbicidal effect on upland weeds after emergence; conditions: dosage 5 kg/ha; sprayed after emergence; judged 14 days after treatment
Method in brief: (§5)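 Scores of weed-killing rate, with crop phytotoxicity, come from inspection 14 days after plants in soil vats, grown to specified leaf stages, are sprayed with a formulation holding the compound at a prescribed concentration.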

[13] = tested on: bird's eye speedwell (Veronica persica Poir.), Vp; assay: as above; conditions: dosage 5 kg/ha; sprayed after emergence; judged 14 days after treatment
Method in brief: as §5

[14] = tested on: cleavers (Galium aparine L.), Ga; assay: as above; conditions: dosage 5 kg/ha; sprayed after emergence; judged 14 days after treatment
Method in brief: as §5

[15] = tested on: cocklebur (Xanthium strumarium L.), Xs; assay: as above; conditions: dosage 5 kg/ha; sprayed after emergence; judged 14 days after treatment
Method in brief: as §5

[16] = tested on: forxtail grass (Alopecurus aequalis var. amurensis Ohwi), Am; assay: as above; conditions: dosage 5 kg/ha; sprayed after emergence; judged 14 days after treatment
Method in brief: as §5

[17] = tested on: velvetleaf (Abutilon theophtasti L.), At; assay: as above; conditions: dosage 5 kg/ha; sprayed after emergence; judged 14 days after treatment
Method in brief: as §5

soybean plant = assay: Test Example 4: phytotoxicity to upland crop plants, treatment after emergence; conditions: dosage 5 kg/ha, sprayed after emergence, judged 14 days after treatment
Method in brief: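 Weeds and soybean grown in soil-filled vats to set leaf stages, then sprayed post-emergence with the compound at a prescribed concentration. Weed-killing rate and crop phytotoxicity judged 14 days after treatment.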

wheat = assay: as above; conditions: dosage 5 kg/ha, sprayed after emergence, judged 14 days after treatment
Method in brief: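 Post-emergence foliar spray, compound at prescribed concentration, applied at defined leaf stages; weeds plus soybean/wheat grown in soil vats. Read-out: weed-killing rate and crop injury, 14 d post-treatment.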

Row | SMILES | Pre-emergence treatment Barnyard grass (herbicidal effect) [1] | Pre-emergence treatment Bulrush (herbicidal effect) [2] | Post-emergence treatment Barnyard grass (herbicidal effect) [3] | Post-emergence treatment Bulrush (herbicidal effect) [4] | Post-emergence treatment Monochoria (herbicidal effect) [5] | Herbicidal effect Ec [6] | Herbicidal effect Vp [7] | Herbicidal effect Ga [8] | Herbicidal effect Xs [9] | Herbicidal effect Am [10] | Herbicidal effect At [11] | Phytotoxicity So (soybean plant (So)) | Phytotoxicity Wh (wheat (Wh)) | Herbicidal effect Ec [12] | Herbicidal effect Vp [13] | Herbicidal effect Ga [14] | Herbicidal effect Xs [15] | Herbicidal effect Am [16] | Herbicidal effect At [17] | Phytotoxicity So (soybean plant) | other results
1 | CCCNC(=O)c1nc2nc(C)n(C)c2cc1C(=O)Nc1c(CC)ccc(Cl)c1CC [compound 1233] | 5 (Weed-killing rate is 100%.) | 5 (Weed-killing rate is 100%.) | 5 (Weed-killing rate is 100%.) | 5 (Weed-killing rate is 100%.) | 5 (Weed-killing rate is 100%.) | 5 (Weed-killing rate is 100%.) | 5 (Weed-killing rate is 100%.) | 5 (Weed-killing rate is 100%.) | 5 (Weed-killing rate is 100%.) | 5 (Weed-killing rate is 100%.) | 5 (Weed-killing rate is 100%.) | 5 (Crop-killing rate is 100%.) | 5 (Crop-killing rate is 100%.) | 5 (Weed-killing rate is 100%.) | 5 (Weed-killing rate is 100%.) | 5 (Weed-killing rate is 100%.) | 5 (Weed-killing rate is 100%.) | 5 (Weed-killing rate is 100%.) | 5 (Weed-killing rate is 100%.) | 5 (Crop-killing rate is 100%.) | Phytotoxicity Wh (wheat): 5 (Crop-killing rate is 100%.)
2 | CCCNC(=O)c1nc2ocnc2cc1C(=O)Nc1c(CC)ccc(Cl)c1CC [compound 1245] | 5 (Weed-killing rate is 100%.) | 5 (Weed-killing rate is 100%.) | 5 (Weed-killing rate is 100%.) | 5 (Weed-killing rate is 100%.) | 5 (Weed-killing rate is 100%.) | 5 (Weed-killing rate is 100%.) | 5 (Weed-killing rate is 100%.) | 5 (Weed-killing rate is 100%.) | 5 (Weed-killing rate is 100%.) | 5 (Weed-killing rate is 100%.) | 5 (Weed-killing rate is 100%.) | 5 (Crop-killing rate is 100%.) | 5 (Crop-killing rate is 100%.) | 5 (Weed-killing rate is 100%.) | 5 (Weed-killing rate is 100%.) | 5 (Weed-killing rate is 100%.) | 5 (Weed-killing rate is 100%.) | 5 (Weed-killing rate is 100%.) | 5 (Weed-killing rate is 100%.) | 5 (Crop-killing rate is 100%.) | Phytotoxicity Wh (wheat): 5 (Crop-killing rate is 100%.)
3 | CCCNC(=O)c1nc2c(cc1C(=O)Nc1c(CC)ccc(Cl)c1CC)ncn2C [compound 1269] | 5 (Weed-killing rate is 100%.) | 5 (Weed-killing rate is 100%.) | 5 (Weed-killing rate is 100%.) | 5 (Weed-killing rate is 100%.) | 5 (Weed-killing rate is 100%.) | 5 (Weed-killing rate is 100%.) | 5 (Weed-killing rate is 100%.) | 5 (Weed-killing rate is 100%.) | 5 (Weed-killing rate is 100%.) | 5 (Weed-killing rate is 100%.) | 5 (Weed-killing rate is 100%.) | 4 (Crop-killing rate is 90-99%.) | 5 (Crop-killing rate is 100%.) | 5 (Weed-killing rate is 100%.) | 5 (Weed-killing rate is 100%.) | 5 (Weed-killing rate is 100%.) | 5 (Weed-killing rate is 100%.) | 5 (Weed-killing rate is 100%.) | 5 (Weed-killing rate is 100%.) | 4 (Crop-killing rate is 90-99%.) | Phytotoxicity Wh (wheat): 5 (Crop-killing rate is 100%.)
